Some test systems named below: MDA-MB-435; SNB-19 CNS; COLO 205 colon; UACC-257 melanoma; OVCAR-8 ovarian; MOLT-4 leukemia; 786-0 renal; SW-620 colon; SF-295 CNS; MCF7 breast; HCT-15 colon; NCI-H23 lung; SK-MEL-5 melanoma; EKVX NSCLC; SK-MEL-2 melanoma; RPMI-8226 leukemia; HT29 colon; NCI-H522 lung; SF-268 CNS; RXF 393 renal.
Experiment in all cases: NCI anticancer screen, dose series, 48 h

The structures appear in SMILES notation.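 Cultured in 96-well plates, cells were exposed to test compound for 48 hours across five concentrations. TGI: concentration producing complete growth inhibition.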

Regarding `O=S1(=O)OCCOS(=O)(=O)C1S(=O)(=O)c1ccc2ccccc2c1`, the TGI in the test with MDA-MB-435, with SNB-19 CNS, in the test with COLO 205 colon, in the test on UACC-257 melanoma, in the test with OVCAR-8 ovarian and in the test with MOLT-4 leukemia was above 100 µM each time. Besides, the TGI in the test on 786-0 renal, with SW-620 colon, in the test on SF-295 CNS, in the test with MCF7 breast, in the test on HCT-15 colon and in the test on NCI-H23 lung was above 100 µM throughout. For the same compound, the TGI in the test with SK-MEL-5 melanoma, in the test with EKVX NSCLC, in the test on SK-MEL-2 melanoma, in the test with RPMI-8226 leukemia and in the test on HT29 colon was above 100 µM in each case.

In the case of `O=c1[nH]nc(-c2ccccc2)n1Nc1ccccc1`, the TGI in the test with MDA-MB-435, in the test with SNB-19 CNS, with COLO 205 colon, with NCI-H522 lung, in the test on UACC-257 melanoma and with OVCAR-8 ovarian was above 100 µM throughout. Further, the TGI in the test on MOLT-4 leukemia, in the test on 786-0 renal, with SW-620 colon, with SF-295 CNS, in the test on HCT-15 colon and in the test with NCI-H23 lung was above 100 µM throughout. Also, the TGI in the test with SK-MEL-5 melanoma, with EKVX NSCLC, in the test on SF-268 CNS, with SK-MEL-2 melanoma, in the test on RXF 393 renal and with RPMI-8226 leukemia was above 100 µM in each case. In the test with HT29 colon, this compound registered a TGI above 100 µM.

As to `CCCCCC(C/C=N/N(C)C)C(O)(C(F)(F)F)C(F)(F)F` (stereo unspecified), the TGI was above 100 µM in the test with MDA-MB-435; above 100 µM in the test on SNB-19 CNS; 30.5 µM in the test on COLO 205 colon; above 100 µM in the test on NCI-H522 lung; above 100 µM in the test on OVCAR-8 ovarian; above 100 µM in the test on MOLT-4 leukemia. Also, the TGI in the test on 786-0 renal was above 100 µM; with SW-620 colon, above 100 µM; in the test on SF-295 CNS, above 100 µM; in the test with HCT-15 colon, above 100 µM; with NCI-H23 lung it was above 100 µM; with SK-MEL-5 melanoma, 30.7 µM. For the same compound, the TGI is above 100 µM with EKVX NSCLC; above 100 µM with SF-268 CNS; above 100 µM with SK-MEL-2 melanoma; 76.3 µM with RXF 393 renal; 60.4 µM in the test on RPMI-8226 leukemia; above 100 µM in the test on HT29 colon.

Regarding `Cc1ccc(NCC(=O)N2CC(=O)Nc3ccccc32)c(C)c1`, the TGI in the test on SNB-19 CNS, in the test with COLO 205 colon, with NCI-H522 lung, in the test with UACC-257 melanoma, in the test with OVCAR-8 ovarian and in the test with MOLT-4 leukemia was above 100 µM in each case. Further, the TGI in the test with 786-0 renal, in the test on SW-620 colon, with SF-295 CNS, in the test on HCT-15 colon, with NCI-H23 lung and with SK-MEL-5 melanoma was above 100 µM in each case. Further, the TGI in the test on EKVX NSCLC, in the test with SF-268 CNS, in the test on SK-MEL-2 melanoma, with RXF 393 renal, in the test with RPMI-8226 leukemia and with HT29 colon was above 100 µM throughout.

As for `CC1=NN(c2cccc(Cl)c2)C(=N/c2nc3ccccc3s2)/C1=C\c1ccc(Cl)cc1`, the TGI in the test with NCI-H522 lung was found to be 35.7 µM; in the test on UACC-257 melanoma, 51.2 µM; with OVCAR-8 ovarian, 39.8 µM; in the test with MOLT-4 leukemia, 73.7 µM; in the test on 786-0 renal, 34 µM; in the test on SW-620 colon, 42.3 µM. Besides, the TGI in the test on SF-295 CNS is 61.6 µM; in the test on MCF7 breast it was 65.3 µM; in the test on HCT-15 colon, 28.9 µM; in the test on NCI-H23 lung, 39.3 µM; with SK-MEL-5 melanoma, 32 µM; with EKVX NSCLC, above 100 µM. The TGI was 38.6 µM in the test on SF-268 CNS; 34.2 µM with SK-MEL-2 melanoma; 42.1 µM in the test on RXF 393 renal; above 100 µM in the test with RPMI-8226 leukemia; 34 µM with HT29 colon.

With `Cc1c2ccncc2c(C)c2c1[nH]c1ccc(OC(C)C)cc12`, the TGI with SNB-19 CNS amounted to 3.12 µM; with COLO 205 colon it was 2.81 µM; in the test with NCI-H522 lung, 3.06 µM; in the test with UACC-257 melanoma, 3.3 µM; in the test with OVCAR-8 ovarian, 2.28 µM; with MOLT-4 leukemia, 2.97 µM. For the same compound, the TGI turned out to be 2.44 µM in the test on 786-0 renal; 1.89 µM in the test with SW-620 colon; 2.73 µM in the test with SF-295 CNS; 2.74 µM in the test on HCT-15 colon; 2.93 µM in the test on NCI-H23 lung; 3.2 µM in the test on SK-MEL-5 melanoma. Further, the TGI in the test on EKVX NSCLC is 2.81 µM; in the test with SF-268 CNS, 3.07 µM; in the test with SK-MEL-2 melanoma, 3.22 µM; in the test on RXF 393 renal, 2.76 µM; in the test on RPMI-8226 leukemia, 5.12 µM; with HT29 colon, 2.64 µM.

Regarding `[N-]=[N+]=NC(CCl)c1cn([C@H]2C[C@H](O)[C@@H](CO)O2)c(=O)[nH]c1=O` (stereo partly specified), the TGI in the test on SNB-19 CNS, in the test with COLO 205 colon, in the test with NCI-H522 lung, in the test on OVCAR-8 ovarian, in the test with MOLT-4 leukemia and with 786-0 renal was above 100 µM in each case. The TGI with SW-620 colon, in the test with SF-295 CNS, with HCT-15 colon, in the test on NCI-H23 lung, in the test on SK-MEL-5 melanoma and in the test with EKVX NSCLC was above 100 µM throughout. In addition, the TGI in the test with SK-MEL-2 melanoma, in the test on RXF 393 renal, in the test with RPMI-8226 leukemia and with HT29 colon was above 100 µM in each case.

With `CC(C)=CC1C[C@H](C2CC=C3C2(C)CCC2[C@@]3(C)C(=O)CC3[C@]2(C)C=CC(=O)[C@]3(C)CO)CO1` (stereo partly specified), the TGI in the test on SNB-19 CNS is 42.9 µM; in the test on COLO 205 colon, 27.2 µM; in the test on NCI-H522 lung, 8.71 µM; in the test with UACC-257 melanoma, 30.8 µM; in the test with OVCAR-8 ovarian it was above 24.4 µM; with MOLT-4 leukemia, 8.43 µM. The TGI in the test on 786-0 renal was 15.7 µM; in the test with SW-620 colon it was above 31.7 µM; in the test on SF-295 CNS, 32.1 µM; in the test with HCT-15 colon it was 40.5 µM; in the test on NCI-H23 lung, 19.1 µM; with SK-MEL-5 melanoma, 25 µM. Besides, the TGI in the test with EKVX NSCLC came out at 55.1 µM; with SF-268 CNS, 23.1 µM; in the test with SK-MEL-2 melanoma, 14.8 µM; in the test with RXF 393 renal, 23.2 µM; with RPMI-8226 leukemia, 15.3 µM; in the test on HT29 colon, 18.2 µM.

(Values after PubChem BioAssay (NCI).)
